# Reference: patent publication US20230339939A1 (Bayer Aktiengesellschaft, priority 2020, published 2023)
# Assays:
# CSNK1A1 = CSNK1A1 (Homo sapiens (Human), UniProt P48729); experiment: CSNK1A1 High ATP Assay (ADP-Glo, 1 mM ATP); assay type: biochemical; settings: median, read-out: CSNK1A1 high ATP assay IC50 [mol/l] (median)
# Protocol: CSNK1A1-inhibitory activity of compounds of the present invention in presence of 1 mM adenosine-tri-phosphate (ATP) was quantified employing the CSNK1A1-high-ATP-assay as described in the following paragraphs. In essence, the enzyme activity is measured by quantification of the adenosine-di-phosphate (ADP), which is generated as a co-product of the enzyme reaction, via the “ADP-Glo™ Kinase Assay” kit from the company Promega. This detection system works as follows: In a first step the ATP not consumed in the kinase reaction is quantitatively converted to cAMP employing an adenylate cyclase (“ADP-Glo-reagent”), then the adenylate cyclase is stopped and the ADP generated in the kinase reaction converted to ATP which generates in a luciferase-based reaction a glow-luminescence signal (“Kinase Detection Reagent”).
# (§1) Recombinant fusion protein of N-terminal Glutathion-S-Transferase (GST) and full-length human CSNK1A1, expressed by baculovirus infected insect cells and purified via Glutathion affinity chromatography, was purchased from Life Technologies (product no. PV4174) and used as enzyme. As substrate for the kinase reaction the biotinylated peptide biotin-Ahx-KRRRAL-pS-VASLPGL (C-terminus in amide form) was used which can be purchased e.g. from the company Biosyntan (Berlin-Buch, Germany).
# For the assay 50 nl of a 100 fold concentrated solution of the test compound in DMSO was pipetted into a white low volume 384-well microtiter plate (Greiner Bio-One, Frickenhausen, Germany), 2 μL of a solution of CSNK1A1 in aqueous assay buffer [50 mM HEPES pH 7.5, 10% (v/v) glycerol, 10 mM MgCl2, 50 mM NaCl, 1 mM dithiothreitol, 0.01% (w/v) bovine serum albumin, 0.01% (v/v) Triton X-100] were added and the mixture was incubated for 15 min at 22° C. to allow pre-binding of the test compounds to the enzyme before the start of the kinase reaction. […] The concentration of CSNK1A1 was adjusted depending of the activity of the enzyme lot and was chosen appropriate to have the assay in the linear range, a typical concentration is about 0.4 ng/μL. The reaction was stopped by the addition of 2.5 μL of “ADP-Glo-reagent” (1:1.5 fold diluted with water) and the resulting mixture was incubated at 22° C. for 1 h to convert the ATP not consumed in the kinase reaction completely […]. Subsequently 2.5 μL of the “kinase detection reagent” (1.2 fold more concentrated than recommended by the producer) were added, the resulting mixture was incubated at 22° C. for 1 h and then the luminescence measured with a suitable measurement instrument (e.g. Viewlux™ from Perkin-Elmer). The amount of emitted light was taken as a measure for the amount of ADP generated and thereby for the activity of the CSNK1A1.
# CSNK1D = CSNK1D (Homo sapiens (Human), UniProt P48730); experiment: CSNK1D Assay (ADP-Glo, 1 μM ATP); assay type: biochemical; settings: median, read-out: CSNK1D IC50 [mol/l] (median)
# Protocol: CSNK1D-inhibitory activity of compounds of the present invention in presence of 1 μM adenosine-tri-phosphate (ATP) was quantified employing the CSNK1 D assay as described in the following paragraphs. In essence, the enzyme activity is measured by quantification of the adenosine-di-phosphate (ADP), which is generated as a co-product of the enzyme reaction, via the “ADP-Glo™ Kinase Assay” kit from the company Promega. This detection system works as follows: In a first step the ATP not consumed in the kinase reaction is quantitatively converted to cAMP employing an adenylate cyclase (“ADP-Glo-reagent”), then the adenylate cyclase is stopped and the ADP generated in the kinase reaction converted to ATP which generates in a luciferase-based reaction a glow-luminescence signal (“Kinase Detection Reagent”).
# as §1, with “CSNK1D,” for “CSNK1A1,”, “PV3665)” for “PV4174)”, “Btn-Ahx-[…]” for “biotin-Ahx-KRRRAL-pS-VASLPGL”
# For the assay 50 nl of a 100 fold concentrated solution of the test compound in DMSO was pipetted into a white 1536-well microtiter plate (Greiner Bio-One, Frickenhausen, Germany), 2 μL of a solution of CSNK1D in aqueous assay buffer [50 mM HEPES pH 7.5, 10% (v/v) glycerol, 10 mM MgCl2, 50 mM NaCl, 1 mM dithiothreitol, 0.01% (w/v) bovine serum albumin, 0.01% (v/v) Triton X-100] were added and the mixture was incubated for 15 min at 22° C. to allow pre-binding of the test compounds to the enzyme before the start of the kinase reaction. […] The concentration of CSNK1D was adjusted depending of the activity of the enzyme lot and was chosen appropriate to have the assay in the linear range, a typical concentration is about 0.5 ng/μL. The reaction was stopped by the addition of 2.5 μL of “ADP-Glo-reagent” (1:1.5 fold diluted with water) and the resulting mixture was incubated at 22° C. for 1 h to convert the ATP not consumed in the kinase reaction completely […]. Subsequently 2.5 μL of the “kinase detection reagent” (1.2 fold more concentrated than recommended by the producer) were added, the resulting mixture was incubated at 22° C. for 1 h and then the luminescence measured with a suitable measurement instrument (e.g. Viewlux™ from Perkin-Elmer). The amount of emitted light was taken as a measure for the amount of ADP generated and thereby for the activity of the CSNK1D.
# Chain of CSNK1D (P48730 whole entry): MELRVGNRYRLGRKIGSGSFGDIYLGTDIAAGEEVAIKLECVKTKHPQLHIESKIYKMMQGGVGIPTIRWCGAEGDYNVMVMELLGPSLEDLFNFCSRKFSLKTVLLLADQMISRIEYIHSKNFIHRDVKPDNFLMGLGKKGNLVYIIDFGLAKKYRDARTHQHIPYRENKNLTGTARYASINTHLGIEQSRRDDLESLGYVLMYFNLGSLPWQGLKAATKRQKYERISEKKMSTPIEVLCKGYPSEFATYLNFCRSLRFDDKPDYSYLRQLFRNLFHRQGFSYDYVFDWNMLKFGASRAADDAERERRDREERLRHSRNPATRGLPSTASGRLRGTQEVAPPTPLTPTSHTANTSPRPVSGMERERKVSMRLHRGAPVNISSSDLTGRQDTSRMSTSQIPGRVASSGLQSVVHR
# Chain of CSNK1A1 (P48729 whole entry): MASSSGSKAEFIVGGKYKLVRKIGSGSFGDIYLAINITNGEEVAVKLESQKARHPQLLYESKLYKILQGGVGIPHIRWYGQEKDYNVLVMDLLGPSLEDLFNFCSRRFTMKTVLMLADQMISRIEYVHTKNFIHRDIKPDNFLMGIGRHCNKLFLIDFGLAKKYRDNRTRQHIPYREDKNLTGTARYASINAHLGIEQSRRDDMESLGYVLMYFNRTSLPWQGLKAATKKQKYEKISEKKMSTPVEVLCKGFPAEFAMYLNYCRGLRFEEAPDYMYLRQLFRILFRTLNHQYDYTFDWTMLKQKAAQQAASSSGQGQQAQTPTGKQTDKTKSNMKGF
SMILES,IC50 (CSNK1A1) [nM],IC50 (CSNK1D) [nM]
"COCC(C(=O)Nc1cc(-c2[nH]c3cccnc3c2-c2ccccn2)ccn1)c1ccc(F)cc1 (racemic) [Example 43, (2RS)-2-(4-fluorophenyl)-3-methoxy-N-(4-(3-(pyridin-2-yl)-1H-pyrrolo[3,2-b]pyridin-2-yl)pyridin-2-yl)propanamide]",40.1,6.46
"CCc1ccnc2c(-c3ccccn3)c(-c3ccnc(NC(=O)Cc4ccc(F)cc4)c3)[nH]c12 [Example 34, N-{4-[7-ethyl-3-(pyridin-2-yl)-1H-pyrrolo[3,2-b]pyridin-2-yl]pyridin-2-yl}-2-(4-fluorophenyl)acetamide]",13.5,3.84
"O=C(Cc1ccc(F)cc1)Nc1cc(-c2[nH]c3ccnnc3c2-c2ccccn2)ccn1 [Example 21, 2-(4-fluorophenyl)-N-{4-[7-(pyridin-2-yl)-5H-pyrrolo[3,2-c]pyridazin-6-yl]pyridin-2-yl}acetamide]",25.1,3.96
"Cc1cc2[nH]c(-c3ccnc(NC(=O)C(C)c4ccc(F)cc4)c3)c(-c3ccccn3)c2nc1F (single isomer, unassigned; (-)) [Example 30, (−)-N-{4-[5-fluoro-6-methyl-3-(pyridin-2-yl)-1H-pyrrolo[3,2-b]pyridin-2-yl]pyridin-2-yl}-2-(4-fluorophenyl)propanamide]",23.7,4.65
"O=C(Cc1ccc(F)cc1)Nc1cc(-c2[nH]c3ccc(F)nc3c2-c2ccccn2)ccn1 [Example 4, 2-(4-fluorophenyl)-N-{4-[5-fluoro-3-(pyridin-2-yl)-1H-pyrrolo[3,2-b]pyridin-2-yl]pyridin-2-yl}acetamide]",5.72,2.33
"CN1CCN(c2ccnc3c(-c4ccccn4)c(-c4ccnc(NC(=O)Cc5ccc(F)cc5)c4)[nH]c23)CC1 [Example 38, 2-(4-fluorophenyl)-N-{4-[7-(4-methylpiperazin-1-yl)-3-(pyridin-2-yl)-1H-pyrrolo[3,2-b]pyridin-2-yl]pyridin-2-yl}acetamide]",19.8,5.59
"O=C(Cc1ccc(F)cc1)Nc1cc(-c2[nH]c3cc(F)cnc3c2-c2ccccn2)ccn1 [Example 9, 2-(4-fluorophenyl)-N-{4-[6-fluoro-3-(pyridin-2-yl)-1H-pyrrolo[3,2-b]pyridin-2-yl]pyridin-2-yl}acetamide]",33.6,4.76
"Cc1cc2[nH]c(-c3ccnc(NC(=O)Cc4ccc(F)cc4)c3)c(-c3ccccn3)c2nc1F [Example 27, N-{4-[5-fluoro-6-methyl-3-(pyridin-2-yl)-1H-pyrrolo[3,2-b]pyridin-2-yl]pyridin-2-yl}-2-(4-fluorophenyl)acetamide]",11.2,5.11
"O=C(Cc1ccc(F)cc1)Nc1cc(-c2[nH]c3cc(F)cnc3c2-c2ccccc2)ccn1 [Example 10, 2-(4-fluorophenyl)-N-[4-(6-fluoro-3-phenyl-1H-pyrrolo[3,2-b]pyridin-2-yl)pyridin-2-yl]acetamide]",302,4.27
"CN1CCC(N(C)c2ccnc3c(-c4ccccn4)c(-c4ccnc(NC(=O)Cc5ccc(F)cc5)c4)[nH]c23)CC1 [Example 39, 2-(4-fluorophenyl)-N-(4-{7-[methyl(1-methylpiperidin-4-yl)amino]-3-(pyridin-2-yl)-1H-pyrrolo[3,2-b]pyridin-2-yl}pyridin-2-yl)acetamide]",32.9,13.6
"Cc1cc2[nH]c(-c3ccnc(NC(=O)C(C)c4ccc(F)cc4)c3)c(-c3ccccn3)c2nc1F (single isomer, unassigned; (+)) [Example 29, (+)-N-{4-[5-fluoro-6-methyl-3-(pyridin-2-yl)-1H-pyrrolo[3,2-b]pyridin-2-yl]pyridin-2-yl}-2-(4-fluorophenyl)propanamide]",1140,30.2
"C=Cc1ccnc2c(-c3ccccn3)c(-c3ccnc(NC(=O)Cc4ccc(F)cc4)c3)[nH]c12 [Example 33, N-{4-[7-ethenyl-3-(pyridin-2-yl)-1H-pyrrolo[3,2-b]pyridin-2-yl]pyridin-2-yl}-2-(4-fluorophenyl)acetamide]",29,9.16
"CC(C(=O)Nc1cc(-c2[nH]c3cccnc3c2-c2ccccc2)ccn1)c1ccc(F)cc1 (racemic) [Example 11, 2-(4-fluorophenyl)-N-[4-(3-phenyl-1H-pyrrolo[3,2-b]pyridin-2-yl)pyridin-2-yl]propanamide]",321,7.02
COCCC(C(=O)Nc1cc(-c2[nH]c3cccnc3c2-c2ccccn2)ccn1)c1ccc(F)cc1 (racemic) [Example 44],59.2,9.84
"CC(C)C(C(=O)Nc1cc(-c2[nH]c3ccc(F)nc3c2-c2ccccn2)ccn1)c1ccc(F)cc1 (single isomer, unassigned; (-)) [Example 25, (−)-2-(4-fluorophenyl)-N-{4-[5-fluoro-3-(pyridin-2-yl)-1H-pyrrolo[3,2-b]pyridin-2-yl]pyridin-2-yl}-3-methylbutanamide]",2320,56.3
"CC(C(=O)Nc1cc(-c2[nH]c3cccnc3c2-c2ccccn2)ccn1)c1ccc(F)cc1 (racemic) [Example 6, 2-(4-fluorophenyl)-N-{4-[3-(pyridin-2-yl)-1H-pyrrolo[3,2-b]pyridin-2-yl]pyridin-2-yl}propanamide]",8.47,3.37
"O=C(Cc1ccc(F)cc1)Nc1cc(-c2[nH]c3ccc(Cl)nc3c2-c2ccccn2)ccn1 [Example 23, N-{4-[5-chloro-3-(pyridin-2-yl)-1H-pyrrolo[3,2-b]pyridin-2-yl]pyridin-2-yl}-2-(4-fluorophenyl)acetamide]",40.9,3.18
"COc1ccnc2c(-c3ccccn3)c(-c3ccnc(NC(=O)Cc4ccc(F)cc4)c3)[nH]c12 [Example 31, 2-(4-fluorophenyl)-N-{4-[7-methoxy-3-(pyridin-2-yl)-1H-pyrrolo[3,2-b]pyridin-2-yl]pyridin-2-yl}acetamide]",5.63,4.4
"CC(C(=O)Nc1cc(-c2[nH]c3ccc(F)nc3c2-c2ccccn2)ccn1)c1ccc(F)cc1 (racemic) [Example 1, 2-(4-fluorophenyl)-N-{4-[5-fluoro-3-(pyridin-2-yl)-1H-pyrrolo[3,2-b]pyridin-2-yl]pyridin-2-yl}propanamide]",16,4.58
"CC(C(=O)Nc1cc(-c2[nH]c3cccnc3c2-c2ccccn2)ccn1)c1ccc(F)cc1 (single isomer, unassigned; (+)) [Example 7, (+)-2-(4-fluorophenyl)-N-{4-[3-(pyridin-2-yl)-1H-pyrrolo[3,2-b]pyridin-2-yl]pyridin-2-yl}propanamide]",4.32,2.1
